Results: patent US20070161644A1, “Erastin analogs and uses thereof” (priority 2005, published 2007)

Legend:
[1] = system: BJELR; assay: Sytox primary screen; assay type: cell-based; details: Homo sapiens, Sytox screen, 48 hours, read-out: IC50 in BJELR
Text: The Sytox primary screen is a phenotypic assay which monitors alterations in cell survival-proliferation as a result of compound treatment. It was devised as high throughput method to identify compounds which specifically alter the growth potential of cells harboring the causative mutations found in cancer patients while not affecting the growth of normal cells.
The assay relies upon an inexpensive, simple and reliable readout of a membrane impermeable fluorescent dye (Sytox, from Molecular Probes) which binds to nucleic acid. In healthy cells, no signal is detected because the cell's membrane is intact and the dye will not enter. However, if a cell's membrane is compromised as a result of apoptosis or necrosis, a fluorescent signal proportional to the number of similarly affected cells will be detected. By utilizing a two-step readout (final read in the presence of detergent to permit labeling of all cells), the assay can identify compounds which produce cytostasis, cytotoxicity and/or mitogenesis. The first read or “dead cell” read provides an estimate of the toxicity of a given compound by indicating the number of dead or dying cells in the culture at the time of assay. The second read or “total cell” read captures both the cumulative effects of cytoxicity in reducing the size of the cell population as well as any cytostatic or anti-proliferative effects a test compound may exert on the cells in the test population in the absence of toxicity.
For the purpose of screening, the previously described BJ-TERT line was defined as the “normal” reference cell line and BJ-TERT/LT/ST/RAS^V12 cells were the tumorigenic cell line. Cells were seeded overnight in 96 well plates at densities which without treatment would permit 95% confluence in the wells 72 H later. The following day, the cells were exposed to test compounds in a dilution series for a period of 48 hours. Following this incubation period, the Sytox reagent was added to the cultures at the manufacturer's recommended concentration and the dead cell fluorescence read was taken. After completion of this measurement, the detergent Saponin was added to each well of the cultures to permeabilize the membranes allowing the Sytox reagent to enter every cell thereby, facilitating measurement of the total number of cells remaining in the culture.

[2] = system: BJ-TERT/LT/ST/RAS^V12 cells relative to BJ-TERT cells; assay: Alamar Blue viability assay, tumorigenic versus wild type cells; assay type: cell-based, human
Procedure: Alamar Blue is reduced by mitochondrial enzyme activity in viable cells, causing both colorimetric and fluorescent changes (Nociari et al., 1998, J. Immunol. Methods 13, 157-167). Cells were seeded at a density of 6000 cells (50 μl) per well in a 384-well black, clear bottom plate using a syringe bulk dispenser (Zymark). 10 μl was removed from a two-fold serially diluted erastin plate (6× final concentration) using a 384 fixed cannula head, making the final concentration 20 μg/ml in the well with highest concentration. The plates were incubated for 24 hours. Alamar Blue (Biosource International) was added to each well by diluting 1:10 and incubated for 16 hours at 37° C. Fluorescence intensity was determined using a Packard Fusion platereader with an excitation filter centered on 535 nm and an emission filter centered on 590 nm. Average percentage inhibition at each concentration was calculated. Error bars indicate one standard deviation.
The effect of erastin or erastin B on cell viability was measured using Alamar Blue as described in Example 3 in both tumorigenic BJ-TERT/LT/ST/RAS^V12 (BJELR) cells and wild type BJ-TERT (BJEH) cells. In this example, cell viability was measured at 1, 2, and 3 days after treatment with erastin or erastin B (data for days 1 and 3 not shown). Average percentage inhibition at each concentration was measured.
The effect on cell viability of each of the two isomers of Compound 20 was measured using the Alamar Blue assay described in Example 3 in both tumorigenic BJ-TERT/LT/ST/RAS^V12 cells and wild type BJ-TERT cells. Average percentage inhibition at each concentration was measured.
The effect on cell viability of erastin or Compound 21 was measured using the Alamar Blue assay as described in Example 3 in both tumorigenic BJ-TERT/LT/ST/RAS^V12 cells and in wild type BJ-TERT cells. Average percentage inhibition at each concentration was measured. […]

[3] = system: PANC-1 xenografts; assay: PANC-1 tumor treatment study; assay type: in vivo; details: immunodeficient nude mouse; once a day for five consecutive days
Procedure: The experimental plan for the PANC-1 study was essentially identical to that of the HT-1080 study outlined above in Example 10 with the following exceptions: approximately 30-40 mg fragment of passaged PANC-1 tumor tissue was implanted subcutaneously in the right flank of an immunodeficient nude mouse. Tumor growth was monitored daily and when the tumors reached approximately 100 mm^3, animals harboring similarly sized tumors were group matched and compound dosing was initiated. Administration of compound 5 occurred once a day for five consecutive days at the doses listed below. In the PANC-1 xenografts, gemcitabine, administered at the maximum tolerated dose for the model, was used as a control. The gemcitabine regimen was 180 mg/kg […] on every third day over a period of 9 days.

[4] = system: HT-1080 xenografts; assay: HT-1080 tumor treatment study; assay type: in vivo, mouse; details: nude Balb/c mice; 100 or 50 mg/Kg, QD×5 days, IP
Procedure: Nude Balb/c (Nu/Nu strain, Charles River Laboratories), female, 5-6 week. old (˜20 g average body weight).
Both compounds were formulated in an identical manner. For the 100 mg/kg dose level, each compound was delivered at a concentration of 10.0 mg/ml, in an injection volume of 0.2 ml. For the 50 mg/kg dose level, each compound was delivered at a concentration of 5.0 mg/ml, in an injection volume of 0.2 ml. For both dose levels, the vehicle contained 0.025% Tween-80, 0.01% benzyl alcohol, 35 mM acetic acid (HOAc), 100 mM potassium phosphate buffer, and 32 mM sucrose, pH=6.5.
Beginning when the mean tumor volume reached ˜200 mm^3, and continuing through day 5, every day, each animal was administered a single IP injection of one of the above treatments, for a total of 5 doses.
Each of 70 mice was implanted with 1×10^7 HT-1080 cells by SC injection of 0.1 cc of inoculum into the right hind flank. A 25 G×⅝″ needle size was used. […]
Starting on Day 1, all animals were weighed, and tumor dimensions (length (L) and width (W)) were measured, every other day. […]
The resulting tumor volume values were averaged for each study group for each time point, and were then plotted against time. Variance was expressed as standard error of the mean (±SEM).

[5] = system: BJ-TERT/LT/ST/RAS^V12 cells; assay: Annexin V-FITC apoptosis assay; assay type: cell-based, human; details: erastin-treated (9 μM); untreated 6%
Procedure: BJ-TERT/LT/ST/RAS^V12 cells were seeded at 1×10^6 cells per dish in 100 mm dishes and allowed to grow overnight. Cells were treated with erastin (5 or 10 μg/ml) for 6, 8 or 11 h. A camptothecin-treated (0.4 μg/ml) control was maintained, treated at the time of seeding for 20 hours. After the treatment, cells were harvested with trypsin/EDTA and washed once with fresh medium containing serum and then twice with phosphate buffered saline. Cells were resuspended in 1× binding buffer (BD Pharmingen) at a concentration of 1×10^6 cells/ml. 100 μl (1×10^5 cells) was incubated with 5 μl of Annexin V-FITC (BD Pharmingen) and propidium iodiode (BD Pharmingen) for 15 minutes in the dark at room temperature. Then 400 μl of the 1× binding buffer was added and the cells analyzed by flow cytometry (Becton-Dickinson). Data were acquired and analyzed using Cellquest software.

[6] = system: BJ-TERT/LT/ST/RAS^V12 cells; assay: Calcein AM viability assay, dilution series; assay type: cell-based, human; details: within 18 hours; BJ-TERT/LT/ST/RAS^V12 cells
Procedure: Described here is work carried out to identify compounds with increased potency or activity in the presence of hTERT, LT, ST, E6, E7 or RAS^V12. Although the work described herein made use of hTERT, LT, ST, E6, E7 and RAS^V12 as transforming genes, future studies can make use of a wide variety of cancer-associated alleles using this methodology in order to define the signaling networks that involve many oncogenes and tumor suppressors. […] Cell viability was measured using the dye calcein acetoxymethyl ester (calcein AM) (Wang et al., 1993, Hum. Immunol. 37, 264-270), which is a non-fluorescent compound that freely diffuses into cells. […]
Calcein acetoxylmethyl ester (AM) is a cell membrane-permeable, non-fluorescent compound that is cleaved by intracellular esterases to form the anionic, cell-impermeable, fluorescent compound calcein. […] Total fluorescence intensity in each well was recorded on a Packard Fusion platereader, and converted to a percent inhibition of signal by subtracting the instrument background and dividing by the average signal obtained when cells were not treated with any compound. […]
Mean RFU (relative fluorescence units) for untreated cells was calculated by averaging columns 1, 2, and 23 (wells with cells but lacking compounds). The calcein background was calculated by averaging column 24 (wells with calcein, but lacking cells). […]

CCOc1ccccc1-n1c(CN2CCN(CC#N)CC2)nc2ccccc2c1=O [Compound 7] was tested, and the IC50 [1] was no less than 100 nM.
With CCOc1ccccc1-n1c(CN2CCN(C(=O)COc3ccc(Cl)cc3)CC2)nc2ccccc2c1=O [Compound 21, 2-({4-[(4-chlorophenoxy)acetyl]piperazin-1-yl}methyl)-3-(2-ethoxyphenyl)quinazolin-4(3H)-one] the “lethality in BJ-TERT/LT/ST/RAS^V12 (BJELR) cells compared to BJ-TERT (BJEH) cells” value [2] was “selective lethality” and the “profile compared to erastin” value ([2]; both cell types) was “profile nearly identical to that of erastin”.
Work on CCOc1ccccc1-n1c(C(C)N2CCN(CCO)CC2)nc2ccccc2c1=O (centres unmarked) [Compound 9] yielded an IC50 [1] of no less than 1000 nM.
O=c1c2ccccc2nc(CN2CCNCC2)n1-c1c(Cl)cccc1Cl [Compound 16] showed an IC50 [1] of no less than 100 nM.
With CCOc1ccccc1-n1c(C(C)N2CCNCC2)nc2ccccc2c1=O (centres unmarked) [Compound 6] the IC50 [1] was no less than 1000 nM, the “antitumor activity in PANC-1 xenografts” value [3] was “tumor growth inhibition” and the “antitumor activity in HT-1080 xenografts” value [4] was “tumor growth inhibition”.
CCOc1ccccc1-n1c(CN2CCN(CC)CC2)nc2ccccc2c1=O [Compound 11] showed an IC50 [1] of no less than 100 nM.
With CCOc1ccccc1-n1c(CN2CCCN(C)CC2)nc2ccccc2c1=O [Compound 12] the IC50 [1] was less than 100 nM.
CCOc1ccccc1-n1c(CN2CCN(C)CC2)nc2ccccc2c1=O [Compound 10] gave an IC50 [1] of no less than 1000 nM.
CCN1CCN(Cc2nc3ccccc3c(=O)n2-c2c(Cl)cccc2Cl)CC1 [Compound 17] showed an IC50 [1] of no less than 100 nM.
With CCOc1ccccc1-n1c(CN2CCCNCC2)nc2ccccc2c1=O [Compound 13] the IC50 [1] was less than 100 nM.
CCOc1ccccc1-n1c(C(C)N2CCNCC2)nc2cc(Cl)ccc2c1=O (centres unmarked) [Compound 14] showed an IC50 [1] of no less than 100 nM.
For CCOc1ccccc1-n1c(C(C)N2CCN(C(=O)COc3ccc(Cl)cc3)CC2)nc2ccccc2c1=O (centres unmarked) [Erastin, 2-[1′-(N-(4″-chlorophenoxyacetyl)-N-piperazino]-ethyl]-3-(2′″-ethoxyphenyl)-quinazolin-4-one], the “percentage of cells in M1 region (Annexin V staining)” value [5] was 6% and the “effectiveness (cell death)” value [6] was 100%.
With CCOc1ccccc1-n1c(C(C)N2CCN(C)CC2)nc2ccccc2c1=O (centres unmarked) [Compound 8] the IC50 [1] was no less than 1000 nM.
